Test results from EP0006532A1, “Lactams, methods for their preparation, and medicaments containing them” (Dr. Karl Thomae GmbH, priority 1978, dated 1980).
≈ marks a conversion by molar mass, not a printed value.

Key:
Proteus mirab. = test: MIC (MHK), agar diffusion and serial dilution test; assay type: cell-based; conditions: read-out: MHK-Werte
From the text: (§1) Die Untersuchungen auf die antibakterielle Wirksamkeit in vitro wurde nach dem Agar-Diffusionstest und nach dem Reihenverdünnungstest in Anlehnung an die von P. Klein in "Bakteriologische Grundlagen der Chemotherapeutischen Laboratoriumspraxis", Springerverlag 1957, Seiten 53 bis 76 und 87 bis 109, beschriebenen Methodik durchgeführt.
(§2) Für D-α-[3-(3,4-Dihydro-3-methyl-2-hydroxy-4-oxo-5- pyrimidyl)-ureido/-p-hydroxybenzyl-penicillin-Natrium (Verbindung 1) und für Natrium-7-{D-α-[3-(3,4-Dihydro-2-hydroxy-3-methyl-4-oxo-5-pyrimidyl)-ureido]-p-hydroxyphenylacetamido}-3-[(1-methyl-tetrazol-5-yl)-thiomethyl]-ceph-3-em-4-carboxylat (Verbindung 2) wurden folgende MHK-Werte gegen einige gramnegative Keime gemessen: […]

Proteus Vulgaris = test: MIC (MHK), agar diffusion and serial dilution test; assay type: cell-based; conditions: read-out: MHK-Werte
From the text: as §1, §2

E.coli ATCC 9637 = test: MIC (MHK), agar diffusion and serial dilution test; assay type: cell-based; conditions: Escherichia coli, ATCC9637, read-out: MHK-Werte
From the text: as §1, §2

Klebs. pneum. 272 = test: MIC (MHK), agar diffusion and serial dilution test; assay type: cell-based; conditions: read-out: MHK-Werte
From the text: as §1, §2

Pseud.aerug. ATCC 10145 = test: MIC (MHK), agar diffusion and serial dilution test; assay type: cell-based; conditions: read-out: MHK-Werte
From the text: as §1, §2

Klebs. pneum. ATCC 10031 = test: MIC (MHK), agar diffusion and serial dilution test; assay type: cell-based; conditions: read-out: MHK-Werte
From the text: as §1, §2

Pseud.aerug Hbg. = test: MIC (MHK), agar diffusion and serial dilution test; assay type: cell-based; conditions: read-out: MHK-Werte
From the text: as §1, §2

[1] = tested on: Ser. marcescens ATCC 13880; test: MIC (MHK), agar diffusion and serial dilution test; assay type: cell-based; conditions: Serratia marcescens, ATCC13880, read-out: MHK-Werte
From the text: as §1, §2

E.coli ATCC 11775 = test: MIC (MHK), agar diffusion and serial dilution test; assay type: cell-based; conditions: Escherichia coli, ATCC11775, read-out: MHK-Werte
From the text: as §1, §2

E.coli 12593/ 74 = test: MIC (MHK), agar diffusion and serial dilution test; assay type: cell-based; conditions: Escherichia coli, read-out: MHK-Werte
From the text: as §1, §2

[2] = tested on: E. coli des Stammes ATCC 11 775; test: ED50 in intraperitoneal E. coli infection of mice; assay type: in vivo, Albino-Mäusen vom Stamm NMRI; conditions: Escherichia coli, ATCC11, sc; intraperitoneal E. coli ATCC 11 775 infection, NMRI albino mice, subcutaneous application; treated three times on day 1 (first 1 h after infection), twice daily on 2 further days
Method: Dabei wurde die ED50 der oben genannten Verbindungen 1 und 2 bei einer intraperitonealen E. coli-Infektion an Albino-Mäusen vom Stamm NMRI bestimmt. Am ersten Tag wurde dreimal behandelt (erstmals 1 h nach Infektion) und 2 weitere Tage zweimalig.

MIC (Proteus mirab.)	MIC (Proteus Vulgaris)	MIC (E.coli ATCC 9637)	MIC (Klebs. pneum. 272)	MIC (Pseud.aerug. ATCC 10145)	MIC (Klebs. pneum. ATCC 10031)	MIC (Pseud.aerug Hbg.)	MIC [1]	MIC (E.coli ATCC 11775)	MIC (E.coli 12593/ 74)	SMILES	ED50 [2]
1.25 µg/mL (≈ 1.94 µM)	10 µg/mL (≈ 15.5 µM)	1.25 µg/mL (≈ 1.94 µM)	2.5 µg/mL (≈ 3.88 µM)	20 to 40 µg/mL (≈ 31 to 62 µM)	1.25 µg/mL (≈ 1.94 µM)	20 µg/mL (≈ 31 µM)	10 µg/mL (≈ 15.5 µM)	1.25 µg/mL (≈ 1.94 µM)	5 µg/mL (≈ 7.76 µM)	Cn1nnnc1SCC1=C(C(=O)O)N2C(=O)[C@@H](NC(=O)[C@H](NC(=O)Nc3cnc(O)n(C)c3=O)c3ccc(O)cc3)[C@H]2SC1 [Beispiel 2]	–
1.25 µg/mL (≈ 2.35 µM)	10 µg/mL (≈ 18.8 µM)	2.5 µg/mL (≈ 4.69 µM)	40 to 80 µg/mL (≈ 75.1 to 150 µM)	5 µg/mL (≈ 9.39 µM)	40 to 80 µg/mL (≈ 75.1 to 150 µM)	5 µg/mL (≈ 9.39 µM)	2.5 µg/mL (≈ 4.69 µM)	2.5 µg/mL (≈ 4.69 µM)	> 80 µg/mL	Cn1c(O)ncc(NC(=O)N[C@@H](C(=O)N[C@@H]2C(=O)N3[C@@H]2SC(C)(C)[C@@H]3C(=O)O)c2ccc(O)cc2)c1=O [Verbindung 1]	7 mg/kg
–	–	–	–	–	–	–	–	–	–	Cn1nnnc1SCC1=C(C(=O)[O-])N2C(=O)C(NC(=O)[C@H](NC(=O)Nc3cnc(O)n(C)c3=O)c3ccc(O)cc3)[C@H]2SC1.[Na+] (stereo partly drawn) [Verbindung 2, Natrium-7-{D-α-[3-(3,4-Dihydro-2-hydroxy-3-methyl-4-oxo-5-pyrimidyl)-ureido]-p-hydroxyphenylacetamido}-3-[(1-methyl-tetrazol-5-yl)-thiomethyl]-ceph-3-em-4-carboxylat]	3.3 mg/kg
